Assays:
[1] = molecular target: T1, Neuronal acetylcholine receptor subunit alpha-7 (Rattus norvegicus, UniProt Q05941); assay: Displacement of [125I]alpha-bungarotoxin from rat alpha7 nAChR
[2] = molecular target: Neuronal acetylcholine receptor; alpha4/beta2 (Rattus norvegicus, UniProt P09483+P12390); assay: Displacement of [3H]epibatidine from rat alpha4beta2 nAChR; type: protein-complex assay
[3] = molecular target: T1, Neuronal acetylcholine receptor subunit alpha-7; assay: Displacement of [3H]MLA from rat alpha7 nAChR

Chain of Neuronal acetylcholine receptor; alpha4/beta2 (P09483 whole entry): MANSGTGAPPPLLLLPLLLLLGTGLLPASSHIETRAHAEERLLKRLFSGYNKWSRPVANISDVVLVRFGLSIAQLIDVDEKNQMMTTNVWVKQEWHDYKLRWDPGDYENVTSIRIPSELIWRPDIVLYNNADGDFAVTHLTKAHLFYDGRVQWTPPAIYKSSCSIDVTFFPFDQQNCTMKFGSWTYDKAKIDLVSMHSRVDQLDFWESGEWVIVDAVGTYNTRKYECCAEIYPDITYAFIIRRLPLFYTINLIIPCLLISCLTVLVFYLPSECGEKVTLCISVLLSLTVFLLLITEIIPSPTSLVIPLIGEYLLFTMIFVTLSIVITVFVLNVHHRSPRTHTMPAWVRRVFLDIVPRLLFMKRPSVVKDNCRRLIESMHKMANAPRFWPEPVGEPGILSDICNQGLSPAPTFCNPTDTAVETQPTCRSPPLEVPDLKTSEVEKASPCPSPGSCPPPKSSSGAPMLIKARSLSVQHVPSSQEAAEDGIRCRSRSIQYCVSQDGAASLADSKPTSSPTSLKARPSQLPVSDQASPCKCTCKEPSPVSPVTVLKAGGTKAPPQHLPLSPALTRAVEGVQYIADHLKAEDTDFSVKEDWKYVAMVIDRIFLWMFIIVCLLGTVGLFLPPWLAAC
Chain of Neuronal acetylcholine receptor; alpha4/beta2 (P12390 whole entry): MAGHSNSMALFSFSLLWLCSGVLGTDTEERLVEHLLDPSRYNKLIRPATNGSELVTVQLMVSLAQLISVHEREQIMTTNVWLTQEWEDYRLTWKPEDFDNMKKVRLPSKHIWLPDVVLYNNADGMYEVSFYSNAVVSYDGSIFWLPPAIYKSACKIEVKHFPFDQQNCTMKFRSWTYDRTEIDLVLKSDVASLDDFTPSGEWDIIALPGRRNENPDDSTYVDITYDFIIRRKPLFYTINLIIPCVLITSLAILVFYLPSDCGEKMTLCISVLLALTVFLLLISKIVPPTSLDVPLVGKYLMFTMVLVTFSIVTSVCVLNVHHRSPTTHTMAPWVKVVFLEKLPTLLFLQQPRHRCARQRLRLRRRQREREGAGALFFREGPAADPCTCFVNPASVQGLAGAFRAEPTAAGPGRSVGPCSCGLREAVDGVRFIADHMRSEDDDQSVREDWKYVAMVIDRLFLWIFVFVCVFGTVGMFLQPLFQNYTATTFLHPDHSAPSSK
T1 sequence (Q05941 whole entry): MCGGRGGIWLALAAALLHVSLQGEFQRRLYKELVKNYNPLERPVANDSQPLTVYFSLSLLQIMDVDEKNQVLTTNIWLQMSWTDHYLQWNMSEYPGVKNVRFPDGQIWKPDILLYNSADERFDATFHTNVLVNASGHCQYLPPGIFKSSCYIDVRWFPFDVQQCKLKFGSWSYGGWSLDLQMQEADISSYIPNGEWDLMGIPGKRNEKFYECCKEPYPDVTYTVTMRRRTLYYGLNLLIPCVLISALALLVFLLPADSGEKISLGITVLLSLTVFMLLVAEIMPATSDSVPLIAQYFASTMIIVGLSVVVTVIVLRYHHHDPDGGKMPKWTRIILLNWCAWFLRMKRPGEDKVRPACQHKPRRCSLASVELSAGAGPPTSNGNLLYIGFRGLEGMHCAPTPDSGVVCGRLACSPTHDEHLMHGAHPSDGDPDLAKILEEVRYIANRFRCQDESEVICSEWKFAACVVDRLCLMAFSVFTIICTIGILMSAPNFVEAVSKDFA

SMILES | Ki [1] [nM] | Ki [2] [µM] | Ki [3] [nM]
c1cc(N2CCOCC2)ncc1C1CN2CCC1CC2 (stereo not drawn) | 350 | 21 | 
C1=C(c2ccc(N3CCOCC3)nc2)C2CCC1N2 (stereo not drawn) | 33000 | 12 | 
C1=C(c2ccc(N3CCOCC3)nc2)C2CCN1CC2 | 400 | 3.1 | 
C[N+]12CCC(CC1)C(c1ccc(N3CCOCC3)nc1)C2 (stereo not drawn) | 6100 | 25 | 
C[N+]12C=C(c3ccc(N4CCOCC4)nc3)C(CC1)CC2 | 5600 | 22 | 
C1=C(c2cccnc2)C2CCN1CC2 | 140 | 0.11 | 85
